# Data as given in ChEMBL document CHEMBL1201862, “PubChem BioAssay data set” (2004).
# Calls of active or inactive are those of the source.
# What was measured:
# [1] = target: T1, Oxysterols receptor LXR-beta (Homo sapiens, UniProt P55055); format: functional, cell-based;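 further: agonist activity at LXR measured by a cell-based luminescence readout across a dose range, run as a counterscreen for daf-12 agonists; HEK293 cells with Gal4-LXR fusion and GAL4-driven luciferase reporter; potency for activation of Gal4-LXR reporter so compounds are agonists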
# T1 sequence (P55055 whole entry): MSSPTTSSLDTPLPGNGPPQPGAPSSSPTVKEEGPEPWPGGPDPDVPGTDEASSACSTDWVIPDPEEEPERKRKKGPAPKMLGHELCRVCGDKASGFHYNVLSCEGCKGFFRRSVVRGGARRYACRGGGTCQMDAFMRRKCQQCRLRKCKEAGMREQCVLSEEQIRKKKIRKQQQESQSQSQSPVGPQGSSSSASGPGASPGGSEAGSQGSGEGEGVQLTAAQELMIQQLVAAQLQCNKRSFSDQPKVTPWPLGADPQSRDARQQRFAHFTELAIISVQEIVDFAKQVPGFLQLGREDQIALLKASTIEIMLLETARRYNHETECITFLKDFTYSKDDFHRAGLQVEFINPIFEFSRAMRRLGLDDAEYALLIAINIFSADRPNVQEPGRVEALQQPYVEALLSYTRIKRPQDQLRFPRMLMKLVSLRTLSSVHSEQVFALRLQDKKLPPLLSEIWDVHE
# [2] = HepG2 cell cytotoxicity, dose response, cytotoxicity control, ATP luminescence, cherry-pick, activator set 2 (AID 1053143); format: functional, cell-based
# [3] = cells; format: functional, cell-based
# [4] = target: T2, Trace amine-associated receptor 1 (Homo sapiens, UniProt Q96RJ0); experiment: Fluorescence-based cell-based high throughput dose response assay to identify agonists of the human trace amine associated receptor 1 (TAAR1).; format: functional
# T2 sequence (Q96RJ0 whole entry): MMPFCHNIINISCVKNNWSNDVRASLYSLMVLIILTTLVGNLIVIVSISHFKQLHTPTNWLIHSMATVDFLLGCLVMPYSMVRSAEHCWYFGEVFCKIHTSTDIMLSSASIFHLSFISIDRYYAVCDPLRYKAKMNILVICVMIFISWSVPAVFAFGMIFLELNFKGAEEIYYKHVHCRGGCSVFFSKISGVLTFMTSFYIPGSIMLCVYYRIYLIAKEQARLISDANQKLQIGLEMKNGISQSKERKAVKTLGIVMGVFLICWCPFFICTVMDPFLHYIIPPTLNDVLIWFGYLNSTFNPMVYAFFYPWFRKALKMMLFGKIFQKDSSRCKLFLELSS
# [5] = cells; format: functional, cell-based; remark: listed apart in the source
# [6] = target: T2, Trace amine-associated receptor 1; experiment: Counterscreen for agonists of the human trace amine associated receptor 1 (hTAAR1): Fluorescence-based cell-based high throughput dose response assay to identify hTAAR1 agonist that also desensitize TAAR1 receptor response.; format: functional
# [7] = Luminescence Cell-Based Dose Retest to Confirm Inhibitors of Cancer Stem Cells. [Related pubchem assays (depositor defined):AID2717, AID2721]; format: functional; settings: Homo sapiens
# [8] = Late stage assay provider results from the probe development effort to identify inhibitors of the Plasmodium falciparum M18 Aspartyl Aminopeptidase (M18AAP): radiolabel-based cell-based dose response assay to identify compounds that inhibit P. falciparum growth in RBCs, Set 2..; format: functional
# [9] = target: T3, Rac GTPase-activating protein 1 (Homo sapiens, UniProt Q9H0H5); experiment: MgcRacGAP GTPase-activating activity inhibitors, confirmation, biochemical, ADP Hunter fluorescence, primary and confirmatory (AID 624330); format: functional
# T3 sequence (Q9H0H5 whole entry): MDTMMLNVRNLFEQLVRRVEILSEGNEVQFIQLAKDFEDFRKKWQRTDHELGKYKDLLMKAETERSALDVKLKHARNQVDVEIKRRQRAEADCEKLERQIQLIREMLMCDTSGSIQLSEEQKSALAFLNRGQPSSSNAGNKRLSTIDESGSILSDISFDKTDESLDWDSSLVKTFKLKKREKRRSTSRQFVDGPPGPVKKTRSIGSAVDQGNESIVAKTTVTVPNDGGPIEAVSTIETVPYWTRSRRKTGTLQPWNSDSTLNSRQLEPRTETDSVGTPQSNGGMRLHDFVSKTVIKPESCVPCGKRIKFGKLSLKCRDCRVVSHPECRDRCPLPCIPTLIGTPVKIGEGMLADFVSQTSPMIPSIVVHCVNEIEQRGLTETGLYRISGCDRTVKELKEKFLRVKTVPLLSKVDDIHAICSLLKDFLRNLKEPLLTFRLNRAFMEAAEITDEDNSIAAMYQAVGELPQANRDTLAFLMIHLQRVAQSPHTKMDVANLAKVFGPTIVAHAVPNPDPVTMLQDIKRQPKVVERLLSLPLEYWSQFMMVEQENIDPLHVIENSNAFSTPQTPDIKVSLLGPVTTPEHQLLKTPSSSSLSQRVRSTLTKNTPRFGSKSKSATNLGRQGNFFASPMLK
# [10] = target: Photoreceptor-specific nuclear receptor (Homo sapiens, UniProt Q9Y5X4); format: functional, cell-based;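 further: CHO-S cells with Gal4-NCOR and VP16-NR2E3 two-hybrid luciferase reporter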
# [11] = target: Heat shock protein HSP 90-alpha (Homo sapiens, UniProt P07900); format: functional, organism-based
# [12] = HeLa cell cytotoxicity, dose response, cytotoxicity control for MgcRacGAP inhibitor project (AID 624300); format: functional
# [13] = target: Major prion protein (Homo sapiens, UniProt P04156); format: functional, cell-based
# [14] = target: Cytochrome P450 2C19 (Homo sapiens, UniProt P33261); experiment: Cytochrome panel assay with activity outcomes. Panel member name: p450-cyp2c19 Compounds with AC50 equal or less than 10 uM are considered active; format: functional
# [15] = target: Cytochrome P450 2C9 (Homo sapiens, UniProt P11712)
# [16] = target: Cytochrome P450 3A4 (Homo sapiens, UniProt P08684);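 further: CYP3A4 tested as one member of a cytochrome P450 panel screen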
# [17] = cells
# [18] = target: T4, Fatty acid synthase (Homo sapiens, UniProt P49327); experiment: FAS thioesterase domain inhibitors, dose response, biochemical, kinetic fluorescence intensity (AID 624326); format: functional;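 further: rate of fluorescence rise from hydrolysis of a fluorogenic O-methyl fluorescein ester substrate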
# [19] = target: T4, Fatty acid synthase; experiment: FAS thioesterase domain inhibitors, dose response, biochemical, endpoint fluorescence intensity, uHTS hits (AID 624327); format: functional;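 further: fluorescence from hydrolysis of an O-methyl fluorescein acyl ester substrate by the enzyme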
# [20] = P. falciparum Dd2 growth inhibitors, dose response, SYBR Green, cherry-picked samples (AID 1159567); format: functional, cell-based
# [21] = P. falciparum ATP4 D1247Y mutant growth inhibitors, dose response, NITD609-resistant line, SYBR Green, dry powder (AID 1159571); format: functional, cell-based;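 further: parasites synchronized at ring stage by sorbitol before testing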
# [22] = HepG2 cell cytotoxicity, dose response, cytotoxicity control, plate reader, dry powder samples (AID 1159569); format: functional, cell-based;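 further: inhibitor potency with signal falling toward the positive control level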
# [23] = P. falciparum Dd2 growth inhibitors, dose response, SYBR Green, dry powder samples (AID 1159566); format: functional, cell-based;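 further: potency for growth inhibition with lower SYBR green DNA signal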
# [24] = P. falciparum 3D7-ScDHODH growth inhibitors, dose response, SYBR Green, dry powder samples (AID 1159570); format: functional, cell-based;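 further: parasite growth measured after 72 hours of compound exposure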
# [25] = target: T5, DNA repair and recombination protein RAD54-like (Homo sapiens, UniProt Q92698); experiment: inhibitors of human RAD54 branch migration, confirmation, biochemical, fluorescence, cherry-picked samples, dose series (AID 651657); format: functional
# T5 sequence (Q92698 whole entry): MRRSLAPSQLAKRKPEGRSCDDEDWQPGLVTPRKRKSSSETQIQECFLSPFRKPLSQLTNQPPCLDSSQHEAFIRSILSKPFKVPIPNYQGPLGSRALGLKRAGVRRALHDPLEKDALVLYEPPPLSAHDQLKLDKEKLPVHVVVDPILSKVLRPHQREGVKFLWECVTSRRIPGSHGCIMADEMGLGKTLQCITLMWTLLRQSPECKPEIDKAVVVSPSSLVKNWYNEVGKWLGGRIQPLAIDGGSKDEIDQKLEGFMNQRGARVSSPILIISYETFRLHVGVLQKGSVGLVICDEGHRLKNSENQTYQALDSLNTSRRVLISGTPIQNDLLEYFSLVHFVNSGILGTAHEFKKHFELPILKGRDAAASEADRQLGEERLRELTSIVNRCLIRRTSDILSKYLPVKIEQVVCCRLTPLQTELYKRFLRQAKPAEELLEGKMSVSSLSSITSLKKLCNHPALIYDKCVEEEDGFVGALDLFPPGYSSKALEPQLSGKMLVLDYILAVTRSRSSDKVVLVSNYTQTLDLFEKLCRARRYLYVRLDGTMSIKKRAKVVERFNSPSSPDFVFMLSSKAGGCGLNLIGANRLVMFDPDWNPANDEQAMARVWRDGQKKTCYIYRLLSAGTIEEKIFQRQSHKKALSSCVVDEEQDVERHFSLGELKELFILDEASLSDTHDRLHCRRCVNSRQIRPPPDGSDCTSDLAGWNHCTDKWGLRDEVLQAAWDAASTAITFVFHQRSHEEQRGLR
# [26] = target: T6, DNA repair protein RAD52 homolog (Homo sapiens, UniProt P43351); format: functional, biochemical
# T6 sequence (P43351 whole entry): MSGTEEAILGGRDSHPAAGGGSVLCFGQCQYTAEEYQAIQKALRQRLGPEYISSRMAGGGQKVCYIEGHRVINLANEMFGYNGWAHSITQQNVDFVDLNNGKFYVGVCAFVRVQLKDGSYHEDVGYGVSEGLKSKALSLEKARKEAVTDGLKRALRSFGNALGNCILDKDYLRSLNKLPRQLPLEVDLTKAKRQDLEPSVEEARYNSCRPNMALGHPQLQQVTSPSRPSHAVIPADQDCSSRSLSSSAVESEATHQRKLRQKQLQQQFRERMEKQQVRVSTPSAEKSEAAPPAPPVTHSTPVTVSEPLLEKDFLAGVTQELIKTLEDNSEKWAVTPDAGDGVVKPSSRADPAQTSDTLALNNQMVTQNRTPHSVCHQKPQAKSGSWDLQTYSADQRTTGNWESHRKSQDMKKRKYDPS
# [27] = target: Luciferin 4-monooxygenase (Photinus pyralis, UniProt P08659); experiment: firefly luciferase enzyme inhibitors, dose response, biochemical, luminescence (AID 1891)
# [28] = Luminescence Cell-Based Dose Confirmation HTS to Identify Inhibitors of Platelet Dense Granule Release. [Related pubchem assays: 1663 (Primary HTS), 1678 (Summary of Project)]; format: functional
# [29] = PAX5 activity inhibitors, dose response, selectivity assay for PAX8 inhibitor project, cell-based, plate reader, dry powder samples (AID 743047); format: functional;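 further: HEK293 cells carrying a Pax5 driven CD19 promoter luciferase reporter; potency of inhibitors that lower reporter luminescence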
# [30] = system: Vero; experiment: cells; format: functional; settings: Chlorocebus sabaeus
# [31] = target: Paired box protein Pax-8 (Homo sapiens, UniProt Q06710); experiment: inhibitors of PAX8-driven TPO luciferase reporter, dose response, RMG-I cells, cherry-pick (AID 687027); format: functional, cell-based;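 further: luciferase reporter driven by Pax8 target thyroperoxidase promoter measured by SteadyGlo luminescence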
# [32] = cytotoxicity dependent on PAX8, dose response, cell-based, plate reader, dry powder (AID 743049); format: functional
smiles,measurement,setting,value
O=c1[nH]c(=O)n(C2CC(O)C(CO)O2)cc1I (configuration not stated),EC50,[1],> 67.6 µM (inactive)
O=C(NCC1CCCO1)c1ccc2c3n(nc2c1)-c1ccccc1CO3 (configuration not stated),AC50,[2],> 52 µM (inactive)
COc1cc(CCN)ccc1O,EC50,[3],> 29.9 µM (inactive)
same,EC50,[4],2.4 µM (active)
same,IC50,[5],> 29.9 µM (inactive)
same,IC50,[6],21.6 µM (inactive)
CC(Cc1ccccc1)NCCC(c1ccccc1)c1ccccc1 (configuration not stated),AC50,[7],10 µM (active)
same,AC50,[2],14.8 µM (active)
O=C(CC(NCCc1ccccc1)C(=O)O)Nc1ccc(O)cc1 (configuration not stated),EC50,[3],> 29.9 µM (inactive)
same,EC50,[4],7.65 µM (active)
same,IC50,[5],> 29.9 µM (inactive)
same,IC50,[6],> 29.9 µM (inactive)
COc1ccc(CCN(C)c2ccnc3ccccc23)cc1OC,IC50,[8],12 µM (inactive)
O=C1C=CC2(O[C@H](c3ccccc3)[C@@H](c3ccccc3)O2)[C@H](Sc2ccccc2O)C1,IC50,[9],43.8 µM (active)
same,IC50,[10],4.1 µM (active)
same,AC50,[11],4.16 µM (active)
same,CC50,[12],50 µM (active)
CC(=O)c1nnn(-c2nc(N)nc(N(c3ccccc3)c3ccccc3)n2)c1C,IC50,[13],1.92 µM (active)
same,AC50,[14],25.1 µM (inconclusive)
same,AC50,[15],31.6 µM (inconclusive)
same,AC50,[16],inconclusive
same,IC50,[17],> 138 µM (inactive)
Cc1ccc(NC(=O)c2cc(S(=O)(=O)N(C)C)ccc2N2CCCC2)cc1F,IC50,[13],9.92 µM (active)
same,IC50,[18],6.47 µM (active)
same,IC50,[19],13.3 µM (active)
same,IC50,[17],> 138 µM (inactive)
c1cncc(-c2ccc([C@@H]3[C@@H]4CN(Cc5nccs5)C[C@H]3N4)cc2)c1,AC50,[20],2.15 µM (active)
same,AC50,[21],2.03 µM (active)
same,AC50,[22],79.6 µM (active)
same,AC50,[23],1.72 µM (active)
same,AC50,[24],2.97 µM (active)
O=C(Nc1ccccn1)c1csc2c1CCCC2,EC50,[1],> 67.5 µM (inactive)
COc1ccc(CCN(C)c2ccnc3cc(Cl)ccc23)cc1OC,IC50,[8],5.75 µM (active)
O=C(Oc1cccc(/C=N/NC(=O)c2ccccn2)c1)c1ccc([N+](=O)[O-])cc1,AC50,[2],> 52 µM (inactive)
COc1cccc(-c2cc3nc(NCCN4CCCC4)n(C)c(=O)c3s2)c1,AC50,[25],45.4 µM (active)
same,AC50,[26],5.5 µM (active)
COc1cc(Br)c(CCNc2c3c(nc4ccccc24)CCCC3)cc1OC,IC50,[8],3 µM (active)
Oc1ccc(N=Nc2ccc3ccccc3c2)cc1,EC50,[27],712 nM (active)
same,AC50,[7],3.06 µM (active)
same,AC50,[11],4.38 µM (active)
same,EC50,[28],3.76 µM (active)
same,EC50,[1],> 67.5 µM (inactive)
O=C(CSc1ncnc2ccccc12)NCCc1ccccc1,IC50,[13],6.69 µM (active)
same,IC50,[17],> 138 µM (inactive)
O=C1/C(=C/c2cccc(Br)c2)SC(=S)N1CCC(=O)N(CCO)c1ccccc1,AC50,[29],91.4 µM (active)
same,CC50,[30],> 25 µM (active)
same,AC50,[31],8.17 µM (active)
same,AC50,[32],34.3 µM (active)
c1ccc(CCNC2CCCCCC2)cc1,EC50,[3],> 29.9 µM (inactive)
same,EC50,[4],0.495 µM (active)
same,IC50,[5],> 29.9 µM (inactive)
same,IC50,[6],1.72 µM (active)
